We go through 5 compounds from ChEMBL document CHEMBL1201862, “PubChem BioAssay data set” (2004).

Some test systems named below: OVCAR-4; ACHN; KM12; NCI-H23; U-251; SF-539; OVCAR-5; SF-295; SK-OV-3; UACC-257; SW-620; HCT-116; HCT-15; SNB-19; HL-60.
Common to all, as to assay: inhibition of tumour cell growth, NCI panel, 48 h

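Cultured in 96-well plates, cells were exposed to test compound for 48 hours across five concentrations. Abbreviation: GI50, concentration required for 50% inhibition of growth.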 Active and inactive are the calls of the source. Rule as the data show it: active = GI50 up to about 1.1 µM and inactive = higher.

For the compound `Cc1cc(N(CCC#N)CCC#N)ccc1/C(Sc1ccccc1)=C(\NC(=O)/C=C/c1ccccc1)C(=O)Sc1ccccc1`, the GI50 with OVCAR-4 was 3.06 µM (inactive); with ACHN it was 4.75 µM (inactive); in the experiment on KM12, 3.14 µM (inactive); in the experiment on NCI-H23, 2.22 µM (inactive); in the experiment on U-251, 0.82 µM (active); with SF-539 it was 1.47 µM (inactive). Also, the GI50 in the experiment on OVCAR-5 was 5.45 µM (inactive); in the experiment with SF-295, 3.17 µM (inactive); with SK-OV-3, 5.55 µM (inactive); in the experiment on UACC-257 it was 5.53 µM (inactive); in the experiment on SW-620, 4.12 µM (inactive); in the experiment with HCT-116 it was 2.17 µM (inactive). For the same compound, the GI50 in the experiment with HCT-15 was 3.73 µM; with SNB-19, 9.84 µM (inactive); in the experiment on HL-60, 0.628 µM (active).
Turning to `Cc1nc2ccccc2nc1CC(=O)C(=O)Nc1ccc(Cl)cc1Cl`, the GI50 in the experiment with OVCAR-4, in the experiment on ACHN, in the experiment with KM12, in the experiment with NCI-H23, with U-251 and in the experiment on SF-539 was > 100 µM (inactive) each time. Besides, the GI50 with OVCAR-5, in the experiment with SF-295, in the experiment with SK-OV-3, in the experiment on UACC-257, with SW-620 and in the experiment with HCT-116 was > 100 µM (inactive) in each case. For the same compound, the GI50 in the experiment with HCT-15 is more than 100 µM; in the experiment with SNB-19, > 100 µM (inactive); in the experiment on HL-60, > 100 µM (inactive).
Regarding `CC1OC(OC2C(CO)OC(O[C@H]3CC[C@@]4(C)C(=CC[C@H]5[C@@H]6C[C@@H]7O[C@]8(CC[C@@H](C)CN8)[C@@H](C)[C@@H]7[C@@]6(C)CC[C@@H]54)C3)C(O)C2O)C(O)C(O)C1O` (stereo not given in full), the GI50 with OVCAR-4, with ACHN, with KM12, in the experiment with NCI-H23, in the experiment with U-251 and in the experiment with SF-539 was > 100 µM (inactive) in each case. Moreover, the GI50 with OVCAR-5, in the experiment with SF-295, in the experiment on SK-OV-3, in the experiment on UACC-257, in the experiment on SW-620 and in the experiment with HCT-116 was > 100 µM (inactive) each time. Moreover, the figures for the GI50 with HCT-15, with SNB-19 and with HL-60 were more than 100 µM, > 100 µM (inactive) and > 100 µM (inactive), respectively.
For the compound `CCOC(=O)Cn1c(=O)[nH]c(=O)c2c1ncn2Cc1ccccc1`, the GI50 with OVCAR-4, in the experiment with ACHN, in the experiment on KM12, in the experiment with NCI-H23, in the experiment on U-251 and in the experiment on SF-539 was > 100 µM (inactive) in each case. Further, the GI50 in the experiment with OVCAR-5, with SF-295, in the experiment on SK-OV-3, with UACC-257, in the experiment with SW-620 and in the experiment on HCT-116 was > 100 µM (inactive) each time. In addition, the GI50 with HCT-15 was more than 100 µM; in the experiment on SNB-19, > 100 µM (inactive); in the experiment on HL-60, > 100 µM (inactive).
As for `O=C(Nc1ccc([N+](=O)[O-])cc1[N+](=O)[O-])C(=O)C(C(=O)c1ccc(Cl)c(Cl)c1)C1OC(=O)c2ccccc21` (stereo not given), the GI50 in the experiment with OVCAR-4 is 42.9 µM (inactive); in the experiment with ACHN, 23.3 µM (inactive); in the experiment on KM12 it was 18.4 µM (inactive); in the experiment on NCI-H23 it was 17.3 µM (inactive); in the experiment on U-251 it was 30.3 µM (inactive); in the experiment on SF-539, > 10 µM (inactive). For the same compound, the GI50 in the experiment with OVCAR-5 was 25.8 µM (inactive); in the experiment with SF-295, 17.8 µM (inactive); with SK-OV-3, 23.2 µM (inactive); in the experiment with UACC-257, 22.6 µM (inactive); in the experiment on SW-620 it was 20.6 µM (inactive); in the experiment with HCT-116, 19.4 µM (inactive). Also, the GI50 in the experiment on HCT-15 is 27.2 µM; with SNB-19 it was 18.6 µM (inactive); in the experiment on HL-60, 28.9 µM (inactive).
